Source: patent US7595395B2, “Gabaergic agents to treat memory deficits” (priority 2005, dated 2009)
Where two headings read alike, the source gives them in different places.

How the values were obtained:
[1] = target: α4β3γ2 benzodiazepine receptor GABA(A) isoform (UniProt P18507+P48169); test: Radioligand competition binding, α4β3γ2 BzR/GABA(A) isoform; parameters: species or system human and rat
Protocol: The affinity of all ligands at the 6 major recombinant GABAA/BzR subtypes was measured by competition for [^3H]Ro15-1788 binding to HEK-T cells expressing both human and rat GABAA/Bz receptors of composition α1β2γ2 (α1), α2β2γ2 (α2), α3β2γ2 (α3), α4β2γ2 (α4), α5β2γ2 (α5) and α6β2γ2 (α6). It is well known that the β2 and β3 subunits can be interchanged with no effect on Bz ligand affinity or efficacy. […] These studies are similar to those performed in the laboratory of Bryan Roth who has already expressed the receptors employing the work of Kucken et. al. and Gray et. al.
In brief, for membrane preparations, the cells were scraped on to the ice and diluted into 5 mL of phosphate buffered saline (pH=7.40) and cells pelleted by centrifugation for 5 min. at 4° C. The pellet was resuspended in 1 mL of 50 mM Tris-acetate buffer (pH 7.4) and centrifuged at 18,000 g for 20 min. […] Each pellet were diluted to 6 mL and then 100 μL of membranes were incubated with approximately 1 nM final concentration of [^3H]Ro 15-1788 in a total volume of 250 μL together with serial dilutions of test compound for 90 min. on ice. The membranes were harvested in polyethyleneimine-pretreated Whatman GF/C filters and after drying and addition of scintillation cocktail, counted in a scintillation counter. […]

α2β3γ2 GABAA receptor = α2β3γ2 GABAA receptor (Rattus norvegicus, UniProt P18508+P23576); test: Two-electrode voltage clamp in Xenopus oocytes, α2β3γ2; conditions: oocytes
[2] = system: full panel of receptors (5ht1a ... σ1, σ2); test: Full panel receptor binding (secondary binding)
Source text: FIGS. 28 A and B provide a full panel Receptor data for certain compounds of the invention. Data on the full panel (secondary binding) are Ki values. The Ki values are reported in nanomolar concentrations, In the Full panel data various receptors were used, including 5ht1a, 5ht1b, 5ht1d, 5ht1e, 5ht2a, 5ht2b, 5ht2c, 5ht3, 5ht5a, 5ht6, 5ht7, α1A, α1B, α2A, α2B, α2C, β1, β2, CB1, CB2, D1, D2, D3, D4, D5, DAT, DOR, H1, H2, H3, H4, imidazoline 1, KOR, M1, M2, M3, M4, M5, MDR1, MOR, NET, NMDA, SERT, σ1, and σ2. 5-HT receptors, 5ht1a, 5ht1b, 5ht1d, 5ht1e, 5ht2a, 5ht2b, 5ht2c, 5ht3, 5ht5a, 5ht6, 5ht7, are receptors for the neurotransmitter and peripheral signal mediator serotonin, also known as 5-hydroxytryptamine or 5-HT. α1A, α1B, α2A, α2B, α2C, β1, β2; CB1, CB2 are adrenoceptors; cannabinoid receptors, D1, D2, D3, D4, D5 are dopamine receptors; DAT is dopamine transporter receptor; DOR is δ-Opioid receptor; H1, H2, H3, H4 are histamine receptors; KOR is κ-Opioid receptor; M1, M2, M3, M4, M5 are muscarinic acetylcholine receptors; MDR represents multidrug resistance in the course of exposure to various compounds that are used in modern anticancer therapy, including cytotoxic drugs and differentiating agents. […]

C57B1/6 mice = test: Audio cued fear conditioning; format: in vivo; conditions: scopolamine impairment
Source text: Further, animal data for FIGS. 22-26 were obtained using experimental methodologies described in a previously published reference, Influence of benzodiazepine binding site ligands on fear-conditioned contextual memory European journal of Pharmacology, Volume 426, Issues 1-2, 24 Aug. 2001, Pages 45-54, Timothy M. DeLorey, Richard C. Lin, Brian McBrady, Xiaohui He, James M. Cook, Jelveh Lameh and Gilda H. Loew, which is incorporated by reference as if fully set forth here in its entirety. Selected sections of the reference are provided below:
Male C57B1/6 mice were obtained from Charles Rivers Laboratories (Holister, Calif.) at 6 weeks of age. […] All animal protocols used in this study conform to the guidelines determined by the National Institute of Health (USA) Office for Protection from Research Risks and are approved by the Animal Care and Use Committee of the Palo Alto Veterans Administration Medical Center, Palo, Alto, Calif. […]
Before testing each day, the mice were moved to a holding room and allowed to acclimate for at least 30 min. […] Twenty-four hours later, contextual memory was assessed by placing the mice back into the freshly rescented (0.3% Ammonium hydroxide) conditioning chambers in which they were trained, for a 4-min test period in the absence of footshock. […] Data were analyzed by one-way analysis of variance(ANOVA) using GraphPad PRISM 2.01 (GraphPad Software). […]

Sequence of α2β3γ2 GABAA receptor (P23576 29-451): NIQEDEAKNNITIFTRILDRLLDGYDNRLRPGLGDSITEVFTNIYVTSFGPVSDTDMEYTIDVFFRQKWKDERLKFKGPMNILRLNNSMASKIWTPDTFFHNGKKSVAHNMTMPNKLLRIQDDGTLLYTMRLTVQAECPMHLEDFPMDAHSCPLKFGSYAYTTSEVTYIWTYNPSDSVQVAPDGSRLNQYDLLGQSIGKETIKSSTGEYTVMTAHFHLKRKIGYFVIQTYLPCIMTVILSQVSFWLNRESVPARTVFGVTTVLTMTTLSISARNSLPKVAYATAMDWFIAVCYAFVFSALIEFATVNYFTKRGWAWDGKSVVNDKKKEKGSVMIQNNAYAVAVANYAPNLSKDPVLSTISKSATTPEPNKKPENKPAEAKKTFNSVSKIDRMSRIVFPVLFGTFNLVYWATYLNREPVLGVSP
Sequence of α2β3γ2 GABAA receptor (P63079 26-473 partner): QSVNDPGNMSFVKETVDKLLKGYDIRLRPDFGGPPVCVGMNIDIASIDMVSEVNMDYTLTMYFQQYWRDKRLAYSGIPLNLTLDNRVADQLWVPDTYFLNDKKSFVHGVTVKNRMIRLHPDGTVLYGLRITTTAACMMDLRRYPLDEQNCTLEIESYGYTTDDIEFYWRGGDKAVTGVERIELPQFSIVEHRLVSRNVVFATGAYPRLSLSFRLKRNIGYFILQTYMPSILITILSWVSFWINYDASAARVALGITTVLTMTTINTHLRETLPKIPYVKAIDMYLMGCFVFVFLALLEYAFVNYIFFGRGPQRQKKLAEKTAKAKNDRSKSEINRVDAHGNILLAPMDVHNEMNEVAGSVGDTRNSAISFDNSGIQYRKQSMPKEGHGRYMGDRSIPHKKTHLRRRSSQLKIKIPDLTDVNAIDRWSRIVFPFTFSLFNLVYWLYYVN
Sequence of α2β3γ2 GABAA receptor (P18508 39-466): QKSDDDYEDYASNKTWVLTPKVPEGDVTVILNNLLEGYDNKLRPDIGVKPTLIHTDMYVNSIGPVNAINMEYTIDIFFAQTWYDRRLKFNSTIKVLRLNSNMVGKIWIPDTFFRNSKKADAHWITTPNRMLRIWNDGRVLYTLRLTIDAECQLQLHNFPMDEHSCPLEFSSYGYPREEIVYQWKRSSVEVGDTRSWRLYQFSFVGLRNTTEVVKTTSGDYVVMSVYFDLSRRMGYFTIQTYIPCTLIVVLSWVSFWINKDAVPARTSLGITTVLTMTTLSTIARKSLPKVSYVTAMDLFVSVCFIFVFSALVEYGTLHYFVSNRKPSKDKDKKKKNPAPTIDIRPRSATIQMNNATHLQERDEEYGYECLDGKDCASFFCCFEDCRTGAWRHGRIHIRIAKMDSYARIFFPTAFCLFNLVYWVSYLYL

## CCOC(=O)c1ncn2c1CN=C(c1ccccc1)c1cc(-c3ccccc3)ccc1-2 [DM-I-81, Ethyl 8-phenyl-6-phenyl-4H-benzo[f]imidazo[1,5-a][1,4]diazepine-3-carboxylate]
[1]; Table I, means of two determinations, read-out: Ki α4
  Ki: > 2000 nM
[1]; untitled table of lead compounds, unit inferred, read-out: α4
  Ki: > 2000 nM

## COCc1ncn2c1CN(C)C(=O)c1cc(Cl)ccc1-2 [PWZ-029, methyl(8-chloro-5,6-dihydro-5-methyl-6-oxo-4H-imidazo[1,5-α][1,4]benzodiazepin-3-yl)methyl ether]
α2β3γ2 GABAA receptor
  efficacy / modulation of GABA elicited currents at α2 (in words): very, very weak agonist activity

## CCc1ccc2c(c1)C(=O)N(C)Cc1c(C(=O)OCCCOC(=O)c3ncn4c3CN(C)C(=O)c3cc(CC)ccc3-4)ncn1-2 [XLi356, 1,3-Bis(8-ethyl-5,6-dihydro-5-methyl-6-oxo-4H-imidazo[1,5a][1,4]benzodiazepine-3-carboxy)propyl diester]
[2]
  binding to other receptors in full panel (in words): do not bind to other receptors at levels of concern
C57B1/6 mice; listed as XLI356
  audio cued memory / audio cued fear conditioning (in words): not able to reverse this type of memory
C57B1/6 mice; listed as Xli356
  audio cued memory / audio cued fear conditioning (in words): no activity
